# Measurements: US20090209485A1, “MODULATING ANGIOGENESIS WITH NOD FACTORS SUCH AS GLUCOSAMINE OLIGOSACCHARIDES” (priority 2005, published 2009)
# Key:
# Assay type in all cases: cell-based
# rat aorta [1] = assay: Rat aorta angiogenesis assay (vessel outgrowth from aorta fragments in fibrin gel)
# Protocol: Thoracic aortas were excised from three to nine month-old female Fischer rats, rinsed in Hanks balanced salt solution containing 2.5 μg/ml amphotericin B (Sigma, St Louis, Mo.), cleaned of periadventitial fibroadipose tissue and cross-sectioned at 1 mm intervals. The fragments were freed of residual clots. Dissecting and sectioning of the vessels was performed with the aid of a dissecting microscope.
# Assays were performed in 48-well culture plates (Costar, Cambridge, Mass.). Five hundred microlitres of 3 mg/ml fibrinogen (bovine plasma, Calbiochem, La Jolla, Calif.) in serum free-Medium 199 (GibcoBRL) was added to each well with 5 μg/ml of aprotinin (Sigma) to prevent fibrinolysis by the vessel fragments. One vessel fragment was placed in the centre of the well and 15 μl of thrombin (50 NIH U/ml in 0.15M NaCl: bovine plasma: Sigma St Louis, Mo.) was added to the well and mixed rapidly with the fibrinogen. Fibrin gel formation usually occurred within 30 seconds and ideally the vessel fragment remained suspended in the centre of the gel. After gel formation, 0.5 ml/well of Medium M199 supplemented with 20% fetal calf serum (FCS) (Sigma), 0.1% 6-aminocaproic acid, 1% L-glutamine, 1%-amphotericin B and 0.6% gentamycin was added. The substances tested for angiogenesis modulating activity (compounds PI-88, 1, 2, 3, 4, 5, 6 and 7) were dissolved in 50% acetonitrile in ultrapure water and diluted at least 1:100 in the supplemented medium M199. Immediately after embedding of vessel fragment in the fibrin gels, 0.5 ml of medium containing the test substance was added to each well and each treatment was performed in six wells. Control cultures received medium without the test substance. Vessels were cultured at 37° C. in 5% CO2 in air for five days and the medium was changed on day four. Vessel growth was quantified manually under 40× magnification on day five, with growth being estimated as the percentage of the field (×40) around the vessel fragment that was occupied by vessel outgrowths.
# [2] = system: HUVEC (human umbilical vein endothelial cells); assay: HUVEC assay: tube formation on matrigel; settings: 100 μg/ml, overnight incubation; for Inhibition of HUVEC cell “tiling” and/or change in tube morphology+/−: Matrigel + HUVEC
# Protocol: HUVEC (human umbilical vein endothelial cells) form tubes on a matrigel support. The tubes form a “paving tile” formation after overnight incubation. Nod factor and derivative thereof were added at 100 μg/ml to determine if they inhibited tube formation and/or caused a change in tube morphology.
# rat aorta [3] = assay: Rat aorta angiogenesis assay (vessel outgrowth from aorta fragments in fibrin gel); settings: Table 4, day 6, concentration not given
# Mouse Aorta = assay: Mouse aorta angiogenesis assay (vessel outgrowth from aorta fragments in fibrin gel); settings: Table 5
# Protocol: Thoracic aortas were excised from 6-8 week old female C57 BL/6 mice, rinsed in Hanks balanced salt solution containing 2.5 μg/ml amphotericin B (Sigma, St Louis, Mo.) cleaned of periadventitial fibroadipose tissue and cross-sectioned at 1 mm intervals. The fragments were freed of residual clots. Dissecting and sectioning of the vessels was performed with the aid of a dissecting microscope. Assays were performed in 48-well culture plates (Costar, Cambridge, Mass.). Five hundred microlitres of 3 mg/ml fibrinogen (bovine plasma, Calbiochem, La Jolla, Calif.) in serum free-Medium 199 (GibcoBRL)) was added to each well with 5 ug/ml of aprotinin (Sigma) to prevent fibrinolysis by the vessel fragments. One vessel fragment was placed in the centre of the well and 15 ul of thrombin (50 NIH U/ml in 0.15M NaCl: EC 3.4.21.5 bovine plasma: Sigma St Louis, Mo.) was added to the well and mixed rapidly with the fibrinogen. Fibrin gel formation usually occurred within 30 seconds and ideally the vessel fragment remained suspended in the centre of the gel. […] Vessel growth was quantified manually under 40× magnification on day 7, with growth being estimated as the percentage of the field (×40) around the vessel fragment that was occupied by vessel outgrowths (see Table 5). • ^§Brown, K. J., Maynes, S. F., Bezos, A., Maguire, D. J., Ford, M. D., & Parish, C. […]
# [4] = Table 3, Assay 2, testing at 100 μg/mL, '+' = growth above control
# [5] = Table 3, Assay 3, testing at 100 μg/mL, '+' = growth above control
# [6] = Table 3, Assay 4, testing at 10 μg/mL
# [7] = Table 3, Assay 5, testing at 10 μg/mL
# [8] = Table 1, 10 μg/mL, % of field occupied by vessel outgrowths, control 82 ± 3.2
# [9] = Table 1, 10 μg/mL, '+' = growth above control
# [10] = Table 1, 100 μg/mL, % of field around vessel fragment occupied by vessel outgrowths, control 82 ± 3.2
# [11] = Table 1, 100 μg/mL, '+' = growth above control
# [12] = Table 3, Assay 1, testing at 100 μg/mL
# [13] = Table 4, Assay 1, day 5, control growth 27%, concentration not given
# [14] = Table 4, Assay 2, day 5, control growth 48%, concentration not given
Compound,% Inhibition (rat aorta [1]; [4]) [%],% Inhibition (rat aorta [1]; [5]) [%],% Inhibition (rat aorta [1]; [6]) [%],% Inhibition (rat aorta [1]; [7]) [%],Inhibition of HUVEC cell “tiling” and/or change in tube morphology+/− [2],% Growth (rat aorta [1]; [8]) [%],% Growth (rat aorta [1]; [10]) [%],% Inhibit. (rat aorta [1]; [11]) [%],% Inhibition (rat aorta [1]; [12]) [%],"% Inhibition (rat aorta [3]; Assay 2, control growth 63%) [%]",% Inhibition (rat aorta [1]; [14]) [%],other results
CC(=O)N[C@H]1[C@H](O[C@H]2[C@H](O)[C@@H](NC(C)=O)[C@H](O[C@H]3[C@H](O)[C@@H](NC(C)=O)C(O)O[C@@H]3CO)O[C@@H]2CO)O[C@H](CO)[C@@H](O[C@@H]2O[C@H](CO)[C@@H](O)[C@H](O)[C@H]2N)[C@@H]1O (some centres unmarked) [Compound 23],66,29,14,24,,,,,,,,
CC(=O)N[C@H]1[C@H](O[C@H]2[C@H](O)[C@@H](NC(C)=O)[C@H](O[C@H]3[C@H](O)[C@@H](NC(C)=O)[C@H](O[C@H]4[C@H](O)[C@@H](NC(C)=O)C(O)O[C@@H]4CO[C@@H]4O[C@@H](C)[C@@H](O)[C@@H](O)[C@@H]4O)O[C@@H]3CO)O[C@@H]2CO)O[C@H](CO)[C@@H](O[C@@H]2O[C@H](CO)[C@@H](O)[C@H](O)[C@H]2N)[C@@H]1O (some centres unmarked) [Compound 6],,,,,Yes,73 ± 7.5,53 ± 4.8,35,,,,% Inhibit. (rat aorta [1]; [9]): 11%
CC(=O)N[C@H]1[C@H](O[C@H]2[C@H](O)[C@@H](NC(C)=O)[C@H](O[C@H]3[C@H](O)[C@@H](NC(C)=O)[C@H](O[C@H]4[C@H](O)[C@@H](NC(C)=O)C(O)O[C@@H]4CO)O[C@@H]3CO)O[C@@H]2CO)O[C@H](CO)[C@@H](O[C@@H]2O[C@H](CO)[C@@H](O)[C@H](O)[C@H]2N)[C@@H]1O (some centres unmarked) [Compound 1],,,,,Yes,80 ± 8.4,53 ± 8.0,35,,,,% Inhibit. (rat aorta [1]; [9]): 2.4%
CC(=O)N[C@H]1[C@H](O[C@H]2[C@H](O)[C@@H](NC(C)=O)[C@H](O[C@H]3[C@H](O)[C@@H](NC(C)=O)[C@H](O[C@H]4[C@H](O)[C@@H](NC(C)=O)C(O)O[C@@H]4CO[C@@H]4O[C@@H](C)[C@@H](O)[C@@H](O)[C@@H]4O)O[C@@H]3CO)O[C@@H]2CO)O[C@H](CO)[C@@H](O[C@@H]2O[C@H](CO)[C@@H](O)[C@H](O)[C@H]2N=[N+]=[N-])[C@@H]1O (some centres unmarked) [Compound 26],3,15,,,,,,,,,,
CCCCCCC=CCCCOc1cccc(C(=O)N[C@H]2[C@H](O[C@H]3[C@H](O)[C@@H](NC(C)=O)[C@H](O[C@H]4[C@H](O)[C@@H](NC(C)=O)[C@H](O[C@H]5[C@H](O)[C@@H](NC(C)=O)[C@H](O[C@H]6[C@H](O)[C@@H](NC(C)=O)C(O)O[C@@H]6CO[C@@H]6O[C@@H](C)[C@@H](O)[C@@H](O)[C@@H]6O)O[C@@H]5CO)O[C@@H]4CO)O[C@@H]3CO)O[C@H](CO)[C@@H](O)[C@@H]2O)c1 (some centres unmarked) [Compound 25],76,73,24,21,,,,,,,,"% Inhibition (rat aorta [1]; Table 3, Assay 6, testing at 1.0 μg/mL): 8%; % Inhibition (rat aorta [1]; Table 3, Assay 7, testing at 1.0 μg/mL): 3%"
CC(=O)N[C@H]1[C@H](O[C@H]2[C@H](O)[C@@H](NC(C)=O)[C@H](O[C@H]3[C@H](O)[C@@H](NC(C)=O)C(O)O[C@@H]3COS(=O)(=O)O)O[C@@H]2CO)O[C@H](CO)[C@@H](O[C@@H]2O[C@H](CO)[C@@H](O)[C@H](O)[C@H]2N)[C@@H]1O (some centres unmarked) [Compound 21],41,40,24,33,,,,,74,,,
CC(=O)N[C@H]1C(O)O[C@H](CO)[C@@H](O[C@@H]2O[C@H](CO)[C@@H](O)[C@H](O)[C@H]2N)[C@@H]1O (some centres unmarked) [Compound 22],,,24,16,,,,,5,0,6,% Inhibition (rat aorta [1]; [13]): 33%
CC(=O)N[C@H]1[C@H](O[C@H]2[C@H](O)[C@@H](NC(C)=O)[C@H](O[C@H]3[C@H](O)[C@@H](NC(C)=O)C(O)O[C@@H]3CO[C@@H]3O[C@@H](C)[C@@H](O)[C@@H](O)[C@@H]3O)O[C@@H]2CO)O[C@H](CO)[C@@H](O[C@@H]2O[C@H](CO)[C@@H](O[C@@H]3O[C@H](CO)[C@@H](O)[C@H](O)[C@H]3NC(=O)Cc3ccccc3)[C@H](O)[C@H]2NC(C)=O)[C@@H]1O (some centres unmarked) [Compound 24],,,3,1,,,,,,8,6,
PI-88 [reference compound],77,68,18,14,Yes,,25 ± 5.4,69,82,70,66,"% Inhibition (Mouse Aorta; 10 μg/ml): 30%; % Inhibition (Mouse Aorta; 100 μg/ml): 93%; effect on HUVEC tube formation ([2]; matrigel): affected tube formation; % Inhibition (rat aorta [3]; Assay 1, control growth 43%): 80%; % Inhibit. (rat aorta [1]; Table 2, 100 μg/mL): 47%; % Growth (rat aorta [1]; Table 2, 100 μg/mL, control 74 ± 3.8): 39 ± 6.1%; % Inhibition (rat aorta [1]; [13]): 91%; % Inhibition (rat aorta [1]; Table 4, Assay 1, day 7, control growth 68%, concentration not given): 77%; % Inhibition (rat aorta [1]; Table 4, Assay 2, day 7, control growth 83%, concentration not given): 68%"
CO[C@@H]1[C@H](OC[C@H]2OC(O)[C@H](NC(C)=O)[C@@H](O)[C@@H]2O[C@@H]2O[C@H](CO)[C@@H](O[C@@H]3O[C@H](CO)[C@@H](O[C@@H]4O[C@H](CO)[C@@H](O[C@@H]5O[C@H](CO)[C@@H](O)[C@H](O)[C@H]5N)[C@H](O)[C@H]4NC(C)=O)[C@H](O)[C@H]3NC(C)=O)[C@H](O)[C@H]2NC(C)=O)O[C@@H](C)[C@@H](O)[C@H]1O (some centres unmarked) [Compound 7],,,,,Yes,94 ± 4.0,90 ± 6.3,,,,,
